In US12577247B2 (BUGWORKS RESEARCH, INC., priority 2021, dated 2026) one finds IC50 and EC50 data, which are given here for two compounds.

Structures are written as SMILES. Like-named read-outs stand apart in the source and are kept apart here.

Assay [1] concerns the target T1, A2A receptor (Homo sapiens, UniProt P29274).
T1 construct: host or cells: HEK-293
Description: A2aR antagonism IC50, cAMP TR-FRET in HEK-293 cells, high concentration of adenosine (30 μM).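 Further: compounds added 10 min before adenosine, then 30 min stimulation at room temperature in buffer with 100 µM rolipram and 30 µM EHNA, signal read 1 h after detection reagents.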 It counts as cell-based. The conditions noted are these: HEK-293 cells expressing A2A receptor; agonist adenosine 30 μM; 2% HSA; inhibition of cAMP; read-out: A2AR IC50 (nM) (@30 μM Adenosine). On the technique in general: TR-FRET usually uses a lanthanide donor and a delayed reading to cut background.

Assay [2] deals with human Peripheral blood mononuclear cells (PBMCs). As to the kind of experiment: Cytokine restoration assay in human PBMCs (IL-2, TNF-α) under NECA. It is filed as cell-based. The conditions noted are these: PBMC, NECA 5 μM, anti CD3/28 Dynabeads, 48 hours. The source says: The ability of the invention compounds disclosed herein to restore the cytokines (IL-2 and TNF-α) release under adenosine agonist (NECA) environment evaluated using human Peripheral blood mononuclear cells (PBMCs). Peripheral blood was collected from healthy adult individuals in vacutainer tube. Peripheral blood mononuclear cells (PBMCs) were isolated via density gradient centrifugation, which uses Ficoll (Histopaque buffer) combined with short, low-speed centrifugation, to separate different cell populations. Diluted defibrinated blood was layered on a Ficoll and centrifuged at 1800 rpm for 20 minutes at 22° C. Differential migration of cells during centrifugation results in the formation of layers containing different cell types. The bottom layer contains erythrocytes. Remaining cells (i.e., lymphocytes, monocytes, and platelets) that are not dense enough to penetrate the Ficoll media layers (densities of 1.0770 g/ml), forms a buffy coat at the interface between the upper plasma layer and the Ficoll media layer. After carefully collected the buffy coat excess of platelets, Ficoll and plasma were removed by washing it with isotonic sterile phosphate buffered saline (PBS) and resulting cell pellet was resuspended in RPMI media with 5% FBS an P/S. The isolated PBMCs were allowed to be conditioned for an hour at 37° C. in a CO2 incubator. These cells were subsequently used for specific downstream assay. Isolated PBMC (3×10^5 cells/200 μl) were plated in 96 well microtiter plate in RPMI media with 5% FBS in presence of 100 units of penicillin plus 100 μg/ml streptomycin. NECA was added at a final concentration of 5 μM, control wells were maintained without NECA suppression (i.e., no NECA control). The assay plates were incubated at 37° C. for 4 hours in a CO2 incubator. Various concentrations of test compounds were added into respective wells in triplicates. Pre-washed anti CD3/28 Dynabeads (2.5 μL) was added for CD4 and CD8 + T-cell stimulation (to obtain a bead-to-cell ratio of 1:1). The assay plate was incubated at 37° C. in 5% CO2 and 20% ambient O2 maximum for 48 hours. At the end of 48 hours, the activated PBMC were harvested, and culture supernatants were used directly for further analysis. Forty-eight hours post treatment, 15 μL of cell-free supernatant was collected and assayed for secreted IL2 using the human Interleukin 2 (hIL2)—LANCE Ultra Detection Kit (Perkin Elmer). Similarly, level of soluble Tumor Necrosis Factor alpha (TNFα) was determined using human TNFα LANCE Ultra Detection Kit (Perkin Elmer). T-FRET signal was measured with Tecan spark multimode plate reader. Data was analyzed by graph-pad prism9. EC50 s of the compounds of Formula (I) in restoration of cytokine release under adenosine agonist from the human PBMCS are presented in Table 2

Assay [3] has as its target T2, hERG potassium channel (Homo sapiens, UniProt Q12809).
T2 construct: a Chinese Hamster Ovary cell line stably expressing the full-length hERG potassium channel; expressed in transfected cells; host or cells: Chinese Hamster Ovary cell line
As to the kind of experiment: hERG inhibition assay, Qpatch HTX automated electrophysiology. The conditions noted are these: CHO cell line stably expressing hERG; whole-cell patch clamp; room temperature. It counts as cell-based. The method, then: The representative compounds of formula I were tested for inhibition of the human ether a go-go related gene (hERG) K+ channel using Qpatch HTX automated electrophysiology. 6-Point concentration-response curves were generated using three-fold serial dilutions from a maximum final test concentration of […] and the results are presented in Table 3.
Compounds were solubilised to 100 mM in DMSO before dilution in HBPS to 100 μM. […] Electrophysiological recordings were made from a Chinese Hamster Ovary cell line stably expressing the full-length hERG potassium channel. Single cell ionic currents were measured in whole-cell patch clamp configuration at room temperature (21-23° C.) using the Qpatch HTX platform (Sophion). Intracellular solution contained (mM): 120 KF, 20 KCl, 10 EGTA, 10 HEPES and was buffered to pH 7.3. […] Cells were clamped at a holding potential of −80 mV. Cells were stepped to +20 mV for 2 s then −40 mV for 3 s before returning to the holding potential. This sweep was repeated 10 times at 10 s intervals. hERG currents were measured from the tail step and referenced to the holding current. Compounds were then incubated for 2 minutes prior to a second measurement of ion channel current using an identical pulse train.
(hERG is a cardiac potassium channel; its block is linked to QT prolongation.)

Assay [4] concerns the target T3, A2B receptor (Homo sapiens, UniProt P29275).
T3 sequence (P29275 1-332): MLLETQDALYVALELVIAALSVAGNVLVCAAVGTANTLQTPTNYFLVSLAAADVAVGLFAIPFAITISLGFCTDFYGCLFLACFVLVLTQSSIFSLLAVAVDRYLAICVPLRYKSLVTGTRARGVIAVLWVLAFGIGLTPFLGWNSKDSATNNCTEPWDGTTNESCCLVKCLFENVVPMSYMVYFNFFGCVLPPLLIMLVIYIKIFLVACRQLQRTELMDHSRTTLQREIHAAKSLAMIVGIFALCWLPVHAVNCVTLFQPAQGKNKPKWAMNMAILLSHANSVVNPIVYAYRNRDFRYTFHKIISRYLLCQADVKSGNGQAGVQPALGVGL
As to the kind of experiment: A2bR antagonism IC50, cAMP TR-FRET in HEK-293 cells, high concentration of adenosine (30 μM).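 Further: compounds preincubated 10 min with cells, then adenosine stimulation 30 min at room temperature in buffer with Rolipram 100 µM and EHNA 30 µM, TR-FRET read after 1 h.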 The conditions noted are these: A2BR IC50 (nM) (@30 μM Adenosine), HEK-293 cells expressing A2B receptor; agonist adenosine 30 μM; 2% HSA; inhibition of cAMP.

Assay [5] deals with T3, A2B receptor. As to the kind of experiment: A2bR antagonism IC50, cAMP TR-FRET (Lance Ultra) in HEK-293 cells, NECA as agonist. It is filed as cell-based. Also on record: host or cells: HEK-293. The conditions noted are these: HEK-293 cells expressing A2B receptor; agonist NECA 30 nM (EC90); inhibition of cAMP.
Description: Adenosine A2A receptors and Adenosine A2B receptors induce the production of cAMP when activated/stimulated by an agonist like adenosine or 5′-(N-Ethylcarboxamido) adenosine (NECA). A Time-Resolved Fluorescence Energy Transfer (TR-FRET) assay was used to show the inhibition of this cAMP production in HEK cells upon treatment with compounds of the Formula I of the present disclosure.
HEK-293 cells expressing A2A receptor (#ES-011-C) or A2B receptor (#ES 013-C) were obtained from PerkinElmer. Cells were maintained in DMEM medium supplemented with 10% FBS and 200 μg/mL of G418 at 37° C. and 5% CO2. The cells were cultured in antibiotic free medium for a period of 16-20 hours prior to the assay. All subsequent steps of the assay are performed at room temperature (22-24° C.). The cells were harvested at about 80% confluency by gentle flushing with PBS, recovered by centrifugation and resuspended in stimulation buffer at the concentration of 5.0×10^6 cells/mL.
The assays were conducted in a stimulation buffer containing 1×DMEM, 5 mM HEPES, 0.1% BSA stabilizer and 20-30 μM Rolipram. Serial dilutions of compounds were made in stimulation buffer to achieve a final concentration of high micromolar (10 μM to 0.08 nM) in the reaction volume of 10 μL. The total reaction volume was 10 μL (5 μL of cells, 2.5 μL of antagonist and 2.5 μL of agonist). The stimulation was ended, and the reaction completed by adding 5 μL of 4× Eu-cAMP tracer working solution and 5 μL of 4× ULight-anti-cAMP working solution. The TR-FRET signal was measured after 1-hour incubation using a Tecan M1000 reader.
Assay [6] has as its target T1, A2A receptor. As to the kind of experiment: A2aR antagonism IC50, cAMP TR-FRET (Lance Ultra) in HEK-293 cells, NECA as agonist.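 Further: compounds tested from 10 µM down to 0.08 nM in buffer with Rolipram at room temperature, TR-FRET cAMP signal read 1 h after adding Eu-cAMP tracer and ULight anti-cAMP.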 It counts as cell-based. The conditions noted are these: A2AR IC50 (nM) (@5 nM NECA), HEK-293 cells expressing A2A receptor; agonist NECA 5 nM (EC90); inhibition of cAMP.
Setting [7] is: read-out: IL-2 restoration EC50.
Setting [8] is: read-out: TNF-α restoration EC50.

T1 sequence (P29274 whole entry): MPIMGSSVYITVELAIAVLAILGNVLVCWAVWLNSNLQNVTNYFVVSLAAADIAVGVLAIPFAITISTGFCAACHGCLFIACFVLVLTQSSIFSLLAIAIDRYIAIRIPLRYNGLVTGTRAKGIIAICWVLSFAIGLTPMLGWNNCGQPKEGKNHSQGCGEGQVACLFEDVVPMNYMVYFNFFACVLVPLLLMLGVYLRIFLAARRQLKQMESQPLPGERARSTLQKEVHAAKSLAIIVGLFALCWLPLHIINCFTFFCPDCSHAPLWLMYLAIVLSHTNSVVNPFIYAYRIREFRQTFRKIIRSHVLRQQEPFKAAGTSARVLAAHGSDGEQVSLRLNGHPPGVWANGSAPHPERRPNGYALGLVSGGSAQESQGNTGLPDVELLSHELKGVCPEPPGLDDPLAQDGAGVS
T2 sequence (Q12809 whole entry): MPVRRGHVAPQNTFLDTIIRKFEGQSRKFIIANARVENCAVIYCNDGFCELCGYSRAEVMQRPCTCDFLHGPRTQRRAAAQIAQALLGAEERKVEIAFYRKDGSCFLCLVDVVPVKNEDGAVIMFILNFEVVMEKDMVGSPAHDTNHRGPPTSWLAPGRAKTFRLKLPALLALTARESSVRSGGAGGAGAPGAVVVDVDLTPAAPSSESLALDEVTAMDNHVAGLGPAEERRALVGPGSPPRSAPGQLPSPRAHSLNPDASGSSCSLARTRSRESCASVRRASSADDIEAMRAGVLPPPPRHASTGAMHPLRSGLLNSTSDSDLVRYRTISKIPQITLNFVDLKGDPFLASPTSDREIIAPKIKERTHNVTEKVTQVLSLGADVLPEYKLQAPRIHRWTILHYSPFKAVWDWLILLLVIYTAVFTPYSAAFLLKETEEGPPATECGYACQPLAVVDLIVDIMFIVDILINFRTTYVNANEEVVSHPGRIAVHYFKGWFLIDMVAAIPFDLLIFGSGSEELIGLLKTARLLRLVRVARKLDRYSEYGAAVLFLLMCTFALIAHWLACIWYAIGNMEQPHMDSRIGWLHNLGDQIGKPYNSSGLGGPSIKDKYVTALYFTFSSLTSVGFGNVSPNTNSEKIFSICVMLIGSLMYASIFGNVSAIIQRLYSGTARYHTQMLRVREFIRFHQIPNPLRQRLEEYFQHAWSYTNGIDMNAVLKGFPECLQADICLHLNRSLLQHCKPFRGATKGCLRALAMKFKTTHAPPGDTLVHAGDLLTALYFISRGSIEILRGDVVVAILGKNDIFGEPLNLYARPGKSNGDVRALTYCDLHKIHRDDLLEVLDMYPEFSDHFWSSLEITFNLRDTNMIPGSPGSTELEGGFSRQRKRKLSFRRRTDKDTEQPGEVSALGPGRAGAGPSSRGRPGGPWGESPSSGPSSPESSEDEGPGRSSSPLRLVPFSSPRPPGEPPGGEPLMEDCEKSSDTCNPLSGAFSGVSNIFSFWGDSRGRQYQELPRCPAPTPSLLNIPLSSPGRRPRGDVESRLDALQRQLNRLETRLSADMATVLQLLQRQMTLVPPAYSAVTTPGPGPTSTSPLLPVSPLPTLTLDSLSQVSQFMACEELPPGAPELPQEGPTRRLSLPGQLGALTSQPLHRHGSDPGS

As usually defined, the IC50 is the concentration needed to halve the response being measured. Consider `CCc1c(C)nn2c(N)c(C#N)c(NCCc3cccc(CCCO)n3)nc12` [Example 155, 7-amino-3-ethyl-5-((2-(6-(3-hydroxypropyl)pyridin-2-yl)ethyl)amino)-2-methylpyrazolo[1,5-a]pyrimidine-6-carbonitrile], for which the half-inhibitory concentration (IC50) is 181 nM in assay [1], > 100000 nM in assay [3] and 429 nM in assay [4]. The EC50 came to 3.6 nM in assay [2] (setting [7]) and 3.2 nM in assay [2] (setting [8]).
For `CCc1c(C)nn2c(N)c(C#N)c(NCCc3ccn(C4CCC4CO)n3)nc12` (single isomer, unassigned; (-)) [Example 79, (−)-7-amino-3-ethyl-5-((2-(1-(2-(hydroxymethyl)cyclobutyl)-1H-pyrazol-3-yl)ethyl)amino)-2-methylpyrazolo[1,5-a]pyrimidine-6-carbonitrile], the IC50 in assay [5] is 2 nM; in assay [1] it was 88 nM; in assay [3], > 100000 nM; in assay [6] it was < 0.1 nM; in assay [4], 586 nM. The EC50 in assay [2] (setting [7]) is 2.2 nM; in assay [2] (setting [8]) it was 1.4 nM.
